Source: patent US20240383882A1 (Ecstasy LLC, priority 2020, published 2024)
Counter-ions that a name gives are not always drawn. Like-named read-outs stand apart in the source and are kept apart here.

Tested on: male C57BL/6 mice
Test: 55° C. warm-water tail-flick test (antinociception)
Format: in vivo
Conditions: Mus musculus
Outline: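 Subcutaneous dosing, then tail immersion in 55° C water at 30–120 min; latency normalized as 100×(test−control)/(20−control), using a 20 s cutoff, after excluding mice not responding within 2 s at baseline. Values expressed as ED50 (mg/kg).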

[1] = half maximal effective dose in mice, using one of: warm water tail-flick test, spared nerve injury, chronic constriction injury, or Complete Freund's adjuvant induced inflammatory pain (not stated which per compound), read-out: Biological Activity (ED50)
[2] = sc, 0.5 h, compounds of Table I, s.c., 30 min, 55° C. water, configuration tested as in Table II, read-out: ED50 (mg/kg) at 30 min on C57BL/6 mice in Warm-water Tail-flick Test

SMILES | ED50 [1] [mg/kg] | ED50 [2] [mg/kg]
COc1cccc(C(C)(C)N2CC[C@](CO)(CCc3ccc(C#N)cc3)C2)n1 [Compound 157, (R)-4-(2-(3-(hydroxymethyl)-1-(2-(6-methoxypyridin-2-yl)propan-2-yl)pyrrolidin-3-yl)ethyl) benzonitrile] | ≤ 30 | –
CC(C)(c1ccccn1)N1CC[C@](CO)(CCc2cccc(C#N)c2)C1 [Compound 127, (R)-3-(2-(3-(hydroxymethyl)-1-(2-(pyridin-2-yl)propan-2-yl)pyrrolidin-3-yl)ethyl) benzonitrile] | > 50 | –
CC(C)(c1ccccn1)N1CC[C@](COCc2ccc(C#N)cc2)(C2CCCO2)C1 (single isomer, unassigned) [Compound 74] | > 50 | –
CC(O)[C@]1(CCc2ccc(F)cc2)CCN(C(C)(C)c2ccccn2)C1 (single isomer, unassigned) [Compound 216, (R or S)-1-((R)-3-(4-fluorophenethyl)-1-(2-(pyridin-2-yl)propan-2-yl)pyrrolidin-3-yl)ethan-1-ol] | > 50 | –
Cc1ccc(C(C)(C)N2CCC(CCc3ccc(F)s3)(CNS(=O)(=O)O)C2)cn1 (single isomer, unassigned) [Compound 322] | – | ≤ 30
CC(C)(c1ccccn1)N1CC[C@@](CCc2ccc(S(C)(=O)=O)cc2)(C2CCCO2)C1 (single isomer, unassigned) [Compound 67] | > 50 | –
CCOC[C@@]1(CCc2ccc(C#N)cc2)CCN(C(c2cccnc2)c2cccnc2)C1 [Compound 27, (S)-4-(2-(1-(di(pyridin-3-yl)methyl)-3-(ethoxymethyl)pyrrolidin-3-yl)ethyl) benzonitrile] | > 50 | –
Cc1ccc(C(C)(C)N2CC[C@](CO)(CCc3ccc(C#N)cc3)C2)cn1 [Compound 18, (R)-4-(2-(3-(hydroxymethyl)-1-(2-(6-methylpyridin-3-yl)propan-2-yl)pyrrolidin-3-yl)ethyl) benzonitrile] | ≤ 30 | –
COC[C@@]1(CCc2ccc(S(C)(=O)=O)cc2)CCN(C(C)(C)c2ccc(Cl)cn2)C1 [Compound 45] | > 50 | –
CC(C)(c1ccc(Cl)cc1)N1CC[C@@](CO)(CCc2ccc(S(C)(=O)=O)cc2)C1 [Compound 44] | > 50 | –
CCOC(C(F)(F)F)[C@]1(CCc2ccc(C#N)cc2)CCN(C(C)(C)c2ccccn2)C1 (single isomer, unassigned) [Compound 52] | > 50 | –
CCOC(C(F)(F)F)(C(F)(F)F)[C@]1(COCc2ccccc2)CCN(C(C)(C)c2ccns2)C1 [Compound 23, (R)-5-(2-(3-((benzyloxy)methyl)-3-(2-ethoxy-1,1,1,3,3,3-hexafluoropropan-2-yl)pyrrolidin-1-yl)propan-2-yl)isothiazole] | > 50 | –
CC(C)(c1ccc(F)cn1)N1CC[C@](CCc2ccc(C#N)cc2)(C(O)C(F)(F)F)C1 (single isomer, unassigned) [Compound 229, 4-(2-((S)-1-(2-(5-fluoropyridin-2-yl)propan-2-yl)-3-((R or S)-2,2,2-trifluoro-1-hydroxyethyl)pyrrolidin-3-yl)ethyl) benzonitrile] | > 50 | –
CC(C)(c1ccccn1)N1CC[C@@](CCc2cccc(C#N)c2)([C@H](O)C(F)(F)F)C1 [Compound 133, 3-(2-((R)-1-(2-(pyridin-2-yl)propan-2-yl)-3-((S)-2,2,2-trifluoro-1-hydroxyethyl)pyrrolidin-3-yl)ethyl) benzonitrile] | > 50 | –
CCOCC1(CCc2ccc(F)cc2)CCN(Cc2cncc(F)c2)C1 (single isomer, unassigned) [Compound 45] | – | > 50
Cc1ccc(C(C)(C)N2CCC(CCc3cccs3)(c3nnc(C)s3)C2)cn1 (single isomer, unassigned) [Compound 24] | – | ≤ 30
CCOC(c1ccccn1)C1(CCc2cccs2)CCN(C(C)(C)c2ccc(C)nc2)C1 (single isomer, unassigned) [Compound 86, 5-(2-((S or R)-3-((R& S)-ethoxy(pyridin-2-yl)methyl)-3-(2-(thiophen-2-yl)ethyl)pyrrolidin-1-yl)propan-2-yl)-2-methylpyridine citrate] | – | ≤ 30
CC(C)(c1ccccn1)N1CC[C@@](CCc2ccc(C#N)cc2)(C(=O)O)C1 [Compound 138, (R)-3-(4-cyanophenethyl)-1-(2-(pyridin-2-yl)propan-2-yl)pyrrolidine-3-carboxylic acid] | > 50 | –
CC(C)(c1ccccn1)N1CC[C@](CO)(CCc2cnc3ccccc3n2)C1 [Compound 184, (R)-(1-(2-(pyridin-2-yl)propan-2-yl)-3-(2-(quinoxalin-2-yl)ethyl)pyrrolidin-3-yl)methanol] | > 50 | –
Cc1ccc(C(C)(C)N2CCC(CCc3ccc(F)s3)(c3ncc(C(C)(C)C)[nH]3)C2)cn1 (single isomer, unassigned) [Compound 282] | – | ≤ 30
